Data published in paper PMC4281461, “Pharmacokinetic Comparative Study of Gastrodin and Rhynchophylline after Oral Administration of Different Prescriptions of Yizhi Tablets in Rats by an HPLC-ESI/MS Method” (Evidence-based Complementary and Alternative Medicine : eCAM, 2014).
Where two headings read alike, the source gives them in different places.

What was measured:
[1] = Plasma pharmacokinetics in rats after oral administration of Yizhi tablets, EPT or EPG (HPLC-ESI/MS); type: in vivo, Sprague-Dawley rats; details: for AUC(0-inf) / CL/F / Cmax / Tmax / MRT last / MRT inf / AUC(0-t): male, Sprague-Dawley; for MRT last: read-out: MRT(0–t) (converted); for MRT inf: read-out: MRT(0–∞) (converted)
Description: Male Sprague-Dawley rats (weight: 220 ± 30 g) were purchased from the animal laboratory centre at Tsinghua University (Beijing, China). All animals were maintained in an environmentally controlled room under controlled temperature (22–25°C) and relative humidity (50 ± 5%) on 12 h light/dark cycles (lights on from 08:00 to 20:00). Experiments were conducted in a specific pathogen-free (SPF) grade laboratory, according to the guidelines of the Guiding Principles for the Care and Use of Laboratory Animals approved by the Committee for Animal Experiments at Tsinghua University (Beijing, China). The animals were acclimated for one week before use. Standard diet and water were provided to the rats ad libitum.
Yizhi tablets were prepared by mixing Yizhi tablet powder (9 g) in 10 mL 5% CMC-Na with a magnetic stirring apparatus. The concentration of effective parts of tianma (EPT, total saponins from Gastrodiae) and gouteng (EPG, rhynchophylla alkaloids) was equivalent to that in a Yizhi tablet. The three different suspensions were shacked uniformly before administration.
The rats were randomly assigned to one of three groups (1–3), representing the groups administered with EPT, EPG, and Yizhi, respectively. Each group contained six rats. The rats fasted overnight with free access to water before dose administration. After a single dose was administered by oral gavage, blood samples (0.5 mL) were collected in heparinized tubes via the orbital vein at 0 min, 10 min, 20 min, 30 min, 45 min, 1 h, 2 h, 4 h, 6 h, 8 h, and 12 h. All blood samples were centrifuged at 3000 rpm for 15 min to collect plasma. The plasma samples obtained were stored at −20°C until analysis. Along with the plasma samples, quality control (QC) samples were distributed among calibrators and unknown samples in the analytical run. All of the blank samples used as controls were prepared by the same method as drug-containing samples.
To 200 μL of thawed plasma, 25 μL aqueous ammonia and 800 μL ether were added. The supernatant was separated and dried under nitrogen gas at 37°C after vortexing for 1 min and centrifuging at 10,000 g for 15 min at 4°C. The residues were reconstituted in 50 μL of methanol and centrifuged at 15,000 g for 15 min. A 20 μL aliquot of the supernatant was injected into the HPLC-MS system for analysis of RIN. To the residue, 800 μL methanol was added. The supernatant was separated and evaporated to dryness under nitrogen at room temperature after being vortexed for 3 min and centrifuged at 10,000 g for 15 min. The residue was reconstituted in 50 μL of the initial mobile phase and centrifuged at 15,000 g for 15 min. 20 μL aliquot of the supernatant was injected into the HPLC-MS system for analysis of GAS and HBA.
Yizhi tablets, EPT, and EPG were separately suspended in 0.5% carboxymethylcellulose solution and administered orally to six conscious rats at doses of 9 g/kg for Yizhi tablets, 5.4 g/kg for EPT, and 3.6 g/kg for EPG, respectively. Blood samples were collected from the retroorbital plexus of rats under light anaesthesia with ether. Blood samples were collected in microfuge tubes containing heparin as an anticoagulant at 0 min, 10 min, 20 min, 30 min, 45 min, 1 h, 2 h, 4 h, 6 h, 8 h, and 12 h after treatment. Plasma was harvested by centrifuging blood samples at 3500 ×g for 10 min and stored at −80°C until analysis. The concentrations of GAS, HBA, and RIN in plasma were determined as described above. QC samples were distributed among calibrators and samples in the analytical run to adjust the error.
The pharmacokinetic parameters, such as area under the plasma concentration-time curve (AUC), maximum plasma concentration (C max), corresponding time (T max) and half-life (T 1/2), plasma clearance (CL), mean residence time (MRT), and initial plasma concentration (C 0) for orally administered dose, were performed on each individual set using the software of Kinetica (Version 5.0, Thermo Electron Corp., MA, USA) by the noncompartmental model. […]

[2] = Stability of GAS, HBA and RIN spiked into rat plasma (HPLC-MS); type: physicochemical; details: for Stability (RE, %) 20°C/24 h / Stability (RE, %) Freeze-thaw (3 cycles) / Stability (RE, %) −80°C/20 days: rat plasma, n = 3; for stability spiked into rat plasma: room temperature (22–25°C) for 24 h, −80°C for 20 days, three freeze/thaw cycles
Description: The stability experiments on GAS, HBA, and RIN were performed at three concentrations of the QC samples, using three replicates at each concentration (10, 50, and 100 μg/mL for GAS and HBA and 1, 5, and 10 μg/mL for RIN). Short-term stability was determined after exposure of the spiked samples at room temperature for 24 h. The freeze/thaw stability was evaluated after three complete freeze/thaw cycles (−80°C) on consecutive days. Long-term stability was assessed after storage of the standard spiked plasma samples at −80°C for 20 days. Postextraction stability was determined after the extracted samples had been stored in the autosampler pending analysis at the temperature of the autoinjector (4°C) for 24 h. The analytes were considered stable in the biological matrix when 85–115% (RE) of the initial concentration was found.

[3] = in vivo, rat plasma, oral EPT 5.4 g/kg, n = 6
[4] = in vivo, rat plasma, oral Yizhi tablets 9 g/kg, n = 6
[5] = rat, in vivo, po, 9 g/kg, oral Yizhi tablets 9 g/kg, n = 6
[6] = rat, in vivo, po, 9 g/kg, text value matching the Yizhi tablet group (oral 9 g/kg)
[7] = rat plasma, oral EPT 5.4 g/kg, n = 6
[8] = rat plasma, oral Yizhi tablets 9 g/kg, n = 6
[9] = in vivo, rat plasma, oral EPG 3.6 g/kg, n = 6

| SMILES | AUC(0-inf) [1, 4] | CL/F [1, 4] | Cmax [1, 4] | Tmax [1, 4] | MRT last [1, 4] | MRT inf [1, 4] | AUC(0-t) [1, 5] | AUC(0-t) [1, 6] | Stability (RE, %) 20°C/24 h ([2]; 10 μg/mL) | Stability (RE, %) Freeze-thaw (3 cycles) ([2]; 10 μg/mL) | Stability (RE, %) −80°C/20 days ([2]; 10 μg/mL) | Stability (RE, %) 20°C/24 h ([2]; 50 μg/mL) | Stability (RE, %) Freeze-thaw (3 cycles) ([2]; 50 μg/mL) | Stability (RE, %) −80°C/20 days ([2]; 50 μg/mL) | Stability (RE, %) 20°C/24 h ([2]; 100 μg/mL) | Stability (RE, %) Freeze-thaw (3 cycles) ([2]; 100 μg/mL) | Stability (RE, %) −80°C/20 days ([2]; 100 μg/mL) | stability spiked into rat plasma [2] | further results |
| --- | --- | --- | --- | --- | --- | --- | --- | --- | --- | --- | --- | --- | --- | --- | --- | --- | --- | --- | --- |
| OCc1ccc(O[C@@H]2O[C@H](CO)[C@@H](O)[C@H](O)[C@H]2O)cc1 [GAS, Gastrodin] | 249000 ng·h/mL | 3.5 ± 0.1 mL/min/kg | 141000 ± 19000 ng/mL | 0.75 h | 2.69 h | 3.29 h | 230000 ng·h/mL | 230000 ng·h/mL | 9.35% | 5.36% | 4.38% | 3.17% | 4.12% | 6.95% | 3.93% | 8.26% | 8.01% | stable | AUC(0-inf) [1, 3]: 367000 ng·h/mL; CL/F [1, 3]: 2.32 ± 0.25 mL/min/kg; Cmax [1, 3]: 188000 ± 19300 ng/mL; Tmax [1, 3]: 0.361 h; MRT last [1, 3]: 2.03 h; MRT inf [1, 3]: 2.21 h; AUC(0-t) ([1]; rat, in vivo, po, 5.4 g/kg, oral EPT 5.4 g/kg, n = 6): 359000 ng·h/mL; MRT change when coadministered with Yizhi tablet ([1]; rat plasma, Yizhi tablet group versus EPT group): 1.32 fold; time of first of two successive maximum plasma concentrations ([1]; rat plasma, oral Yizhi tablets): 45 min; time of second of two successive maximum plasma concentrations ([1]; rat plasma, oral Yizhi tablets): 120 min |
| OCc1ccc(O)cc1 [HBA, p-hydroxybenzyl alcohol] |  |  |  |  |  |  |  |  | 4.69% | 2.65% | 4.58% | 2.65% | 4.65% | 5.63% | 3.17% | 7.03% | 7.15% | stable | AUC(0-inf) [1, 7]: 34700 ng·h/mL; AUC(0-t) [1, 7]: 27600 ng·h/mL; Cmax [1, 7]: 9120 ± 610 ng/mL; Tmax [1, 7]: 1 h; MRT last [1, 7]: 2.57 h; MRT inf [1, 7]: 3.98 h; AUC(0-inf) [1, 8]: 52200 ng·h/mL; AUC(0-t) [1, 8]: 37800 ng·h/mL; Cmax [1, 8]: 10400 ± 3020 ng/mL; Tmax [1, 8]: 0.917 h; MRT last [1, 8]: 4.44 h; MRT inf [1, 8]: 9.22 h; bioavailability in Yizhi tablet group compared with EPT alone ([1]; rat plasma, increased AUC, longer MRT (P < 0.01), higher C max): higher bioavailability |
| CC[C@H]1CN2CC[C@]3(C(=O)Nc4ccccc43)[C@@H]2C[C@@H]1/C(=C\OC)C(=O)OC [RIN, rhynchophylline] | 32000 ng·h/mL | 2.18 ± 0.46 mL/min/kg | 6500 ± 1440 ng/mL | 4 h | 3.72 h | 4.59 h | 29700 ng·h/mL | 29700 ng·h/mL | 9.35% | 4.56% | 5.49% |  |  |  |  |  |  | stable | AUC(0-inf) [1, 9]: 43400 ng·h/mL; CL/F [1, 9]: 1.55 ± 0.13 mL/min/kg; Cmax [1, 9]: 6170 ± 380 ng/mL; Tmax [1, 9]: 3.67 h; MRT last [1, 9]: 4.78 h; MRT inf [1, 9]: 5.59 h; AUC(0-t) ([1]; rat, in vivo, po, 3.6 g/kg, oral EPG 3.6 g/kg): 40200 ng·h/mL; AUC(0-t) ([1]; rat, in vivo, po, 3.6 g/kg, oral EPG 3.6 g/kg, n = 6): 40200 ng·h/mL; delay of T max ([1]; rat plasma, Yizhi tablets versus EPG alone): 0.333 h; Stability (RE, %) 20°C/24 h ([2]; 1 μg/mL): 8.63%; Stability (RE, %) Freeze-thaw (3 cycles) ([2]; 1 μg/mL): 7.18%; Stability (RE, %) −80°C/20 days ([2]; 1 μg/mL): 6.88%; Stability (RE, %) 20°C/24 h ([2]; 5 μg/mL): 7.65%; Stability (RE, %) Freeze-thaw (3 cycles) ([2]; 5 μg/mL): 8.08%; Stability (RE, %) −80°C/20 days ([2]; 5 μg/mL): 8.04% |
